≈ marks a conversion by molar mass, not a printed value. Like-named read-outs stand apart in the source and are kept apart here.
Assays:
FimH = FimH (Escherichia coli, UniProt P08191); assay type: binding
Description: Journal of the American Society for Mass Spectrometry, 2009. […] Tested compounds were added to wells following with FimH treatment.
Plates were coated with 100 μl of 10 mg/ml solution of RNAse-B in 100 mM carbonate/bicarbonate buffer pH 9.6. […] 2 h. Then washed three times with 10 mM PBS containing 0.05% Tween-20. […] Wells were washed three times with 10 mM PBS+0.05% Tween-20. 100 μl of anti-body conjugated to horseradish peroxidase (1:5000) was added in buffer and incubated for 1 h at room temperature. Then washed three times with 10 mM PBS+0.05% Tween-20. Added 100 μl of TMB and incubated in dark for 2-5 min. The reaction was stopped with 100 μl/well 1N sulfuric acid. Plate absorbance was analyzed at 450 nm using microplate reader.

[1] = system: AIEC LF82 bacteria adhesion to T84 intestinal epithelial cells; assay: Adhesion assay on T84 cells, pre-, co- and post-incubation protocols (Example 21.2); assay type: cell-based, Escherichia coli; details: for Concentration leading to decreased adhesion levels of at least 50%: pre-incubation assay
Description: E. coli strain LF82 was isolated from a chronic ileal lesion of a patient with Crohn's disease (CD). Bacteria were grown routinely in Luria-Bertani (LB) broth overnight at 37° C. Intestinal epithelial cells T84 derived from colonic adenocarcinoma were maintained in an atmosphere containing 5% CO2 at 37° C. in DMEM/F12 (50/50) medium supplemented with 10% (v/v) heat-inactivated fetal calf serum (FCS), 1% L-glutamine, 100 000 U·l^−1 penicillin, 100 mg·l^−1 streptomycin, 25 μg·l^−1 amphotericin B.
T84 were seeded in 48-well plates at a concentration of 1.5×10^5 cells per well and grown for 48 h. AIEC LF82 bacteria were incubated 1 h with each mannoside prior the cell infection (pre-incubation protocol) or they were added simultaneously onto the cells (co-incubation protocol) in complete medium without antibiotics, containing heat inactivated fetal calf serum (FCS). Heptyl-mannose or compound 2 (example 1) were tested at a dose of 100; 10; 1 or 0.1 μM. D-D-mannose was tested at a dose of 10 000; 1 000; 100 or 10 μM and compound 1 (example 2bis) was tested at a concentration of 500; 100; 10 or 1 μM. Cells were infected with AIEC LF82 bacteria at a multiplicity of infection (MOI) of 10 bacteria per cell for 3 h at 37° C. For the post-incubation protocol, mannosides were incubated with cells for 3 h after bacterial infection. A washing step was realized before this post-incubation to eliminate non-adherent bacteria. Monolayers were washed in phosphate-buffered saline (PBS; pH 7.2) and cells were then lysed with 1% Triton X-100 in deionized water. Samples were diluted and plated onto Luria Bertani agar plates to determine the number of colony-forming units (CFU) recovered from the lysed monolayers. Results were expressed as percentages of residual adhesion, considering adhesion level of AIEC LF82 without mannoside treatment as 100%.

[2] = system: type-1 piliated clinical E. coli isolate UTI89; assay: Haemagglutination inhibition assay (HIA), guinea pig erythrocytes; assay type: cell-based, Escherichia coli; details: for MIC: read-out: Minimal inhibitory concentration (MIC) on haemagglutination
Description: Haemagglutination is observed as the red blood cells being held in suspension through the formation of a space-filling cross-linked network with the fimbriated bacteria.
The UIT89 clinical isolate was grown statically 37° C. for 48 hours in LB medium and analysed for haemagglutination of guinea pig red blood cells. Both bacteria and red blood cells (RBCs) were washed 3 times in ice-cold PBS (17 mM K/NaH2PO4, 150 mM NaCl). PBS was used for all dilutions. 96-well round-bottom microtiter plates were used for the dilutions. The titer for agglutination was determined in a 2-fold dilution series in PBS of the bacteria in a volume of 25 μL. Well 1 is a negative control without bacteria but 25 μL PBS. 25 μL PBS and 50 μL 5% RBCs were added to a final 100 μL volume. Upon 1 hour at 4° C., the titer was determined as the lowest concentration of bacteria that led to haemagglutination.
A bacterial concentration of twice the determined haemagglutination titer was kept constant in the haemagglutination inhibition assays. First, a 2-fold dilution series of the inhibitory compounds was performed in 25 μL PBS. Instead, in well 1 only 25 μL PBS was added as a negative control. 25 μL of the bacterial solution and 50 μl of 5% red blood cells were added to reach a final volume of 100 μL.

bladder cell line 5637 = assay: Anti-adhesives for bacterial bladder cell binding; assay type: cell-based; details: ten-fold dilution series
Description: The anti-adhesive capacities of the HM-derivatized cyclodextrins 1-4 were tested in vitro on the bladder cell line 5637, in a procedure analogous as previously described (Wellens, A. et al., PLoS ONE 3: e2040 (2008)). The CD conjugates 1-4 were diluted in a ten-fold series. The minimum inhibitory concentrations (MIC) indicate the concentrations of sugars at which we see some inhibition of binding of FimH to the bladder cells, they do however not indicate complete inhibition. MIC values for the CD-conjugates 1-4 followed a similar trend as the inhibitory concentrations recorded in HIA.
The anti-adhesive capacities of the n-heptyl α-D-mannoside-derivatized cyclodextrins 1-4 were tested in vitro on the bladder cell line 5637, in a procedure analogous to as described in (Wellens, A. et al., PLoS ONE 3: e2040 (2008)). The ligands have been diluted 10-fold and this is also the resolution limit of these tests.

Chain of FimH (P08191 22-300): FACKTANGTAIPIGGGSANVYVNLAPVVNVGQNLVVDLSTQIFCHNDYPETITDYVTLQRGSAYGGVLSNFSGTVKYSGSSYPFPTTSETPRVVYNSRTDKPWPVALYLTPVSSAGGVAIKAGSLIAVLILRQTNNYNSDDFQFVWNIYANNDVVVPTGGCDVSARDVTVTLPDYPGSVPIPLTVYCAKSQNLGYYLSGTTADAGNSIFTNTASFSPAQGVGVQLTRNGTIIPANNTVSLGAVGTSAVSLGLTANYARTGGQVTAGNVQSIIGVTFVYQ

OCC1OC(OCCCCCCCOCc2cn(CC3OC4OC5C(Cn6cc(COCCCCCCCOC7OC(CO)C(O)C(O)C7O)nn6)OC(OC6C(Cn7cc(COCCCCCCCOC8OC(CO)C(O)C(O)C8O)nn7)OC(OC7C(Cn8cc(COCCCCCCCOC9OC(CO)C(O)C(O)C9O)nn8)OC(OC8C(Cn9cc(COCCCCCCCOC%10OC(CO)C(O)C(O)C%10O)nn9)OC(OC9C(Cn%10cc(COCCCCCCCOC%11OC(CO)C(O)C(O)C%11O)nn%10)OC(OC%10C(Cn%11cc(COCCCCCCCOC%12OC(CO)C(O)C(O)C%12O)nn%11)OC(OC3C(O)C4O)C(O)C%10O)C(O)C9O)C(O)C8O)C(O)C7O)C(O)C6O)C(O)C5O)nn2)C(O)C(O)C1O (centres unmarked) [Compound 2]
Inhibition of oligomannoside binding (FIG. 17) (FimH; compounds 1, 2, 6 and HM compared): most potent inhibition | Adhesion in the post-incubation protocol ([1]; post-incubation, 10 μM): significant decreased adhesion | Concentration leading to decreased adhesion levels of at least 50% [1]: 0.1 µM | MIC ([2]; Escherichia coli, UTI89 1.2 10^9 CFU/ml): 1.56 µM (≈ 5.67 µg/mL) | MIC ([2]; Escherichia coli, UTI89 1.4 10^8 CFU/ml): 0.39 µM (≈ 1.42 µg/mL) | MIC ([2]; Escherichia coli, UTI89 7 10^7 CFU/ml): 0.24 µM (≈ 0.873 µg/mL) | Relative inhibitory potency (RIP), reference 1 ([2]; RIP (UTI89 1.2 10^9 CFU/ml)): >128 | Relative inhibitory potency (RIP), reference HM ([2]; RIP (UTI89 1.2 10^9 CFU/ml)): 8 | Relative inhibitory potency (RIP), reference 1 ([2]; RIP (UTI89 1.4 10^8 CFU/ml)): 256 | Relative inhibitory potency (RIP), reference HM ([2]; RIP (UTI89 1.4 10^8 CFU/ml)): 3 | Relative inhibitory potency (RIP), reference 1 ([2]; RIP (UTI89 7 10^7 CFU/ml)): 263 | Relative inhibitory potency (RIP), reference HM ([2]; RIP (UTI89 7 10^7 CFU/ml)): 4 | MIC, anti-adhesive potency on bladder cell line 5637 (bladder cell line 5637): 0.4 µM (≈ 1.45 µg/mL)

CCCCCCCO[C@H]1O[C@H](CO)[C@@H](O)[C@H](O)[C@@H]1O [HM, Heptylmannoside, reference compound]
Inhibition of FimH binding compared to FimH alone (FimH; 5 nM): significantly inhibited FimH binding | Stability of activity in dissolved form (FimH; HM after 1 month storage in dissolved form vs immediately dissolved): loosing activity in dissolved form | Concentration leading to decreased adhesion levels of at least 50% [1]: 10 µM | Relative inhibitory potency (RIP), reference 1 ([2]; RIP (UTI89 1.2 10^9 CFU/ml)): >16 | Relative inhibitory potency (RIP), reference 3 ([2]; RIP (UTI89 1.2 10^9 CFU/ml)): 16 | Relative inhibitory potency (RIP), reference 1 ([2]; RIP (UTI89 1.4 10^8 CFU/ml)): 67 | Relative inhibitory potency (RIP), reference 3 ([2]; RIP (UTI89 1.4 10^8 CFU/ml)): 33 | Relative inhibitory potency (RIP), reference 1 ([2]; RIP (UTI89 7 10^7 CFU/ml)): 64 | Relative inhibitory potency (RIP), reference 3 ([2]; RIP (UTI89 7 10^7 CFU/ml)): 32 | MIC ([2]; UTI89 1.2 10^9 CFU/ml): 12.5 µM (≈ 3.48 µg/mL) | MIC ([2]; UTI89 1.4 10^8 CFU/ml): 1.50 µM (≈ 0.418 µg/mL) | MIC ([2]; UTI89 7 10^7 CFU/ml): 0.98 µM (≈ 0.273 µg/mL) | MIC, anti-adhesive potency on bladder cell line 5637 (bladder cell line 5637): 4 µM (≈ 1.11 µg/mL)

Reference: patent publication US10273313B2, “Multimeric mannosides, a process for preparing the same and their uses as a drug” (CENTRE NATIONAL DE LA RECHERCHE SCIENTIFIQUE, priority 2012, dated 2019)
